Reference: patent publication US20230077362A1 (CORTEVA AGRISCIENCE LLC, priority 2019, published 2023)

Columns and labels:
[1] = test system: Beet Armyworm (Spodoptera exigua) ("BAW"), second instar larvae; assay: Bioassay on beet armyworm (BAW), 128-well diet tray assay; format: in vivo; details: for pest or weed control at 50 µg/cm2: Spodoptera exigua, read-out: BAW rating; for BAW rating: Table ABC, species BAW, C = not tested, D = no activity noticed
Summary of the method: (§1)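 Read-out: percent larval mortality per well, averaged over 8 wells. Incubation 25° C., 14:10 L:D photoperiod, 5–7 days, trays sealed with clear adhesive cover.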

[2] = test system: Cabbage Looper (Trichoplusia ni) ("CL"), second instar larvae; assay: Bioassay on cabbage looper (CL), 128-well diet tray assay; format: in vivo; details: for pest or weed control at 50 µg/cm2: Trichoplusia ni, read-out: CL rating; for CL rating: Table ABC, species CL, C = not tested, D = no activity noticed
Summary of the method: as §1

SMILES	pest or weed control at 50 µg/cm2 [1] [%]	pest or weed control at 50 µg/cm2 [2] [%]	BAW rating [1]	CL rating [2]
CC(C)c1ccc(N(C)C)cc1N1C(=O)CS/C1=N\C(=O)Nc1ccc(-c2cn(-c3ccc(S(F)(F)(F)(F)F)cc3)cn2)cc1F [Compound J603, (Z)-1-(3-(5-(Dimethylamino)-2-isopropylphenyl)-4-oxothiazolidin-2-ylidene)-3-(2-fluoro-4-(1-(4-(pentafluoro-λ^6-sulfaneyl)phenyl)-1H-imidazol-4-yl)phenyl)urea]	50 to 100	50 to 100	–	–
CC(C)c1cc(F)c(N(C)C)cc1N1C(=O)CS/C1=N\C(=O)Nc1ccc(-c2cn(-c3ccc(S(F)(F)(F)(F)F)cc3)cn2)cc1F [Compound J604, (Z)-1-(3-(5-(Dimethylamino)-4-fluoro-2-isopropylphenyl)-4-oxothiazolidin-2-ylidene)-3-(2-fluoro-4-(1-(4-(pentafluoro-λ^6-sulfaneyl)phenyl)-1H-imidazol-4-yl)phenyl)urea]	50 to 100	50 to 100	–	–
CC(C)c1ccc(C#N)cc1N1C(=O)CS/C1=N\C(=O)Nc1ccc(-c2cn(-c3ccc(S(F)(F)(F)(F)F)cc3)cn2)cc1F [Compound J605, (Z)-1-(3-(5-Cyano-2-isopropylphenyl)-4-oxothiazolidin-2-ylidene)-3-(2-fluoro-4-(1-(4-(pentafluoro-λ^6-sulfaneyl)phenyl)-1H-imidazol-4-yl)phenyl)urea]	50 to 100	50 to 100	–	–
COC(C)c1ccc(C#N)cc1N1C(=O)CS/C1=N\C(=O)Nc1ccc(-c2cn(-c3ccc(S(F)(F)(F)(F)F)cc3)cn2)cc1F (centres unmarked) [Compound J606, (Z)-1-(3-(5-Cyano-2-(1-methoxyethyl)phenyl)-4-oxothiazolidin-2-ylidene)-3-(2-fluoro-4-(1-(4-(pentafluoro-λ^6-sulfaneyl)phenyl)-1H-imidazol-4-yl)phenyl)urea]	50 to 100	50 to 100	–	–
Cc1ccc(C(C)C)c(N2C(=O)CS/C2=N\C(=O)Nc2ccc(-c3nnc(-c4ccc(OC(F)(F)F)cc4)o3)cc2F)c1 [Compound J607, (Z)-1-(2-fluoro-4-(5-(4-(trifluoromethoxy)phenyl)-1,3,4-oxadiazol-2-yl)phenyl)-3-(3-(2-isopropyl-5-methylphenyl)-4-oxothiazolidin-2-ylidene)urea]	50 to 100	50 to 100	–	–
CCCc1ccc(C)cc1N1C(=O)CS/C1=N\C(=O)Nc1ccc(-c2nnc(-c3ccc(OC(F)(F)F)cc3)o2)cc1F [Compound J608, (Z)-1-(2-Fluoro-4-(5-(4-(trifluoromethoxy)phenyl)-1,3,4-oxadiazol-2-yl)phenyl)-3-(3-(5-methyl-2-propylphenyl)-4-oxothiazolidin-2-ylidene)urea]	50 to 100	50 to 100	–	–
COCc1ccc(C)cc1N1C(=O)CS/C1=N\C(=O)Nc1ccc(-c2nnc(-c3ccc(OC(F)(F)F)cc3)o2)cc1F [Compound J609, (Z)-1-(2-Fluoro-4-(5-(4-(trifluoromethoxy)phenyl)-1,3,4-oxadiazol-2-yl)phenyl)-3-(3-(2-(methoxymethyl)-5-methylphenyl)-4-oxothiazolidin-2-ylidene)urea]	50 to 100	50 to 100	–	–
CCOCc1ccc(C)cc1N1C(=O)CS/C1=N\C(=O)Nc1ccc(-c2nnc(-c3ccc(OC(F)(F)F)cc3)o2)cc1F [Compound J610, (Z)-1-(3-(2-(Ethoxymethyl)-5-methylphenyl)-4-oxothiazolidin-2-ylidene)-3-(2-fluoro-4-(5-(4-(trifluoromethoxy)phenyl)-1,3,4-oxadiazol-2-yl)phenyl)urea]	50 to 100	50 to 100	–	–
CN(C)c1ccc(C(F)(F)F)c(N2C(=O)CS/C2=N\C(=O)Nc2ccc(-c3nnc(-c4ccc(OC(F)(F)F)cc4)o3)cc2F)c1 [Compound J611, (Z)-1-(3-(5-(Dimethylamino)-2-(trifluoromethyl)phenyl)-4-oxothiazolidin-2-ylidene)-3-(2-fluoro-4-(5-(4-(trifluoromethoxy)phenyl)-1,3,4-oxadiazol-2-yl)phenyl)urea]	50 to 100	50 to 100	–	–
COCc1ccc(N(C)C)cc1N1C(=O)CS/C1=N\C(=O)Nc1ccc(-c2nnc(-c3ccc(OC(F)(F)F)cc3)o2)cc1F [Compound J612, (Z)-1-(3-(5-(Dimethylamino)-2-(methoxymethyl)phenyl)-4-oxothiazolidin-2-ylidene)-3-(2-fluoro-4-(5-(4-(trifluoromethoxy)phenyl)-1,3,4-oxadiazol-2-yl)phenyl)urea]	50 to 100	50 to 100	–	–
Cc1ccc(C(C)C)c(N2C(=O)CS/C2=N\C(=O)Nc2ccc(-c3cn(-c4ccc(S(F)(F)(F)(F)F)cc4)cn3)cc2C)c1 [Compound J613, (Z)-1-(3-(2-Isopropyl-5-methylphenyl)-4-oxothiazolidin-2-ylidene)-3-(2-methyl-4-(1-(4-(pentafluoro-λ^6-sulfaneyl)phenyl)-1H-imidazol-4-yl)phenyl)urea]	50 to 100	50 to 100	–	–
COC(C)c1ccc(C)cc1N1C(=O)CS/C1=N\C(=O)Nc1ccc(-c2cn(-c3ccc(S(F)(F)(F)(F)F)cc3)cn2)cc1C (centres unmarked) [Compound J614, (Z)-1-(3-(2-(1-Methoxyethyl)-5-methylphenyl)-4-oxothiazolidin-2-ylidene)-3-(2-methyl-4-(1-(4-(pentafluoro-λ^6-sulfaneyl)phenyl)-1H-imidazol-4-yl)phenyl)urea]	50 to 100	50 to 100	–	–
CCOCc1ccc(C)cc1N1C(=O)CS/C1=N\C(=O)Nc1ccc(-c2cn(-c3ccc(S(F)(F)(F)(F)F)cc3)cn2)cc1C [Compound J615, (Z)-1-(3-(2-(Ethoxymethyl)-5-methylphenyl)-4-oxothiazolidin-2-ylidene)-3-(2-methyl-4-(1-(4-(pentafluoro-λ^6-sulfaneyl)phenyl)-1H-imidazol-4-yl)phenyl)urea]	50 to 100	50 to 100	–	–
Cc1ccc(COCC(F)(F)F)c(N2C(=O)CS/C2=N\C(=O)Nc2ccc(-c3cn(-c4ccc(S(F)(F)(F)(F)F)cc4)cn3)cc2C)c1 [Compound J616, (Z)-1-(3-(5-Methyl-2-((2,2,2-trifluoroethoxy)methyl)phenyl)-4-oxothiazolidin-2-ylidene)-3-(2-methyl-4-(1-(4-(pentafluoro-λ^6-sulfaneyl)phenyl)-1H-imidazol-4-yl)phenyl)urea]	50 to 100	50 to 100	–	–
COC(c1ccc(C)cc1N1C(=O)CS/C1=N\C(=O)Nc1ccc(-c2cn(-c3ccc(S(F)(F)(F)(F)F)cc3)cn2)cc1C)C(F)(F)F (centres unmarked) [Compound J617, (Z)-1-(3-(5-Methyl-2-(2,2,2-trifluoro-1-methoxyethyl)phenyl)-4-oxothiazolidin-2-ylidene)-3-(2-methyl-4-(1-(4-(pentafluoro-λ^6-sulfaneyl)phenyl)-1H-imidazol-4-yl)phenyl)urea]	50 to 100	50 to 100	–	–
Cc1cc(-c2cn(-c3ccc(S(F)(F)(F)(F)F)cc3)cn2)ccc1NC(=O)/N=C1\SCC(=O)N1c1cc(N(C)C)ccc1C(C)C [Compound J618, (Z)-1-(3-(5-(Dimethylamino)-2-isopropylphenyl)-4-oxothiazolidin-2-ylidene)-3-(2-methyl-4-(1-(4-(pentafluoro-λ^6-sulfaneyl)phenyl)-1H-imidazol-4-yl)phenyl)urea]	50 to 100	50 to 100	–	–
Cc1cc(-c2cn(-c3ccc(S(F)(F)(F)(F)F)cc3)cn2)ccc1NC(=O)/N=C1\SCC(=O)N1c1cc(N(C)C)c(F)cc1C(C)C [Compound J619, (Z)-1-(3-(5-(Dimethylamino)-4-fluoro-2-isopropylphenyl)-4-oxothiazolidin-2-ylidene)-3-(2-methyl-4-(1-(4-(pentafluoro-λ^6-sulfaneyl)phenyl)-1H-imidazol-4-yl)phenyl)urea]	50 to 100	50 to 100	–	–
CCOc1ccc(-n2cnc(-c3ccc(NC(=O)/N=C4\SCC(=O)N4c4cc(C)c(C)cc4COCC(F)(F)F)c(F)c3)n2)cc1 [Compound J620]	–	–	A (50-100)	A (50-100)
Cc1ccc(COCc2ccc(F)cc2C(F)(F)F)c(N2C(=O)CS/C2=N\C(=O)Nc2ccc(-c3ncn(-c4ccc(OC(F)(F)F)cc4)n3)cc2F)c1 [Compound J621, (Z)-1-(3-(2-(((4-Fluoro-2-(trifluoromethyl)benzyl)oxy)methyl)-5-methylphenyl)-4-oxothiazolidin-2-ylidene)-3-(2-fluoro-4-(1-(4-(trifluoromethoxy)phenyl)-1H-1,2,4-triazol-3-yl)phenyl)urea]	50 to 100	50 to 100	–	–
Cc1ccc(COCc2c(F)c(F)c(F)c(F)c2F)c(N2C(=O)CS/C2=N\C(=O)Nc2ccc(-c3ncn(-c4ccc(OC(F)(F)F)cc4)n3)cc2F)c1 [Compound J622, (Z)-1-(2-Fluoro-4-(1-(4-(trifluoromethoxy)phenyl)-1H-1,2,4-triazol-3-yl)phenyl)-3-(3-(5-methyl-2-(((perfluorophenyl)methoxy)methyl)phenyl)-4-oxothiazolidin-2-ylidene)urea]	50 to 100	50 to 100	–	–
CCOc1ccc(-n2cnc(-c3ccc(NC(=O)/N=C4\SCC(=O)N4c4cc(C)ccc4COCC(F)(F)F)c(F)c3)n2)cc1 [Compound J625]	–	–	A (50-100)	A (50-100)
Cc1ccc(COCC(F)(F)F)c(N2C(=O)CS/C2=N\C(=O)Nc2ccc(-c3ncn(-c4ccc(S(F)(F)(F)(F)F)cc4)n3)cc2C(F)(F)F)c1 [Compound J626, (Z)-1-(3-(5-Methyl-2-((2,2,2-trifluoroethoxy)methyl)phenyl)-4-oxothiazolidin-2-ylidene)-3-(4-(1-(4-(pentafluoro-λ^6-sulfaneyl)phenyl)-1H-1,2,4-triazol-3-yl)-2-(trifluoromethyl)phenyl)urea]	50 to 100	50 to 100	–	–
